Measured values: patent US20060138687A1, “Method of forming particles” (Ferro Corporation, priority 2003, published 2006)

Assay: Scanning Electron Microscopy (SEM) analysis of collected particles
Type: physicochemical
Details: SEM micrograph; particles made by third embodiment (droplets frozen on contact with CO2/ethanol/water extracting fluid at −23° C., solid-liquid extraction)
Procedure: The collected particles were analyzed using Scanning Electron Microscopy (SEM). From FIG. 11 it is clear that the GF particles are in the form of non-agglomerated crystals, having an orthorhombic shape. The mean size of the substantially uniform particles is around 5-10 μm.
Analysis of the porous lactose particles was carried out in the same manner as described in Example 1. FIG. 12 is an SEM micrograph of the lactose particles. […] If desired, these lactose nanocrystals can be obtained simply by crumbling the large porous lactose spheres.

SMILES | mean size of the particles
OC[C@H]1O[C@@H](O[C@H]2[C@H](O)[C@@H](O)C(O)O[C@@H]2CO)[C@H](O)[C@@H](O)[C@H]1O (some centres unmarked) [lactose, Lactose] | 20-30 μm
COC1=CC(=O)C[C@@H](C)[C@]12Oc1c(Cl)c(OC)cc(OC)c1C2=O [GF, Griseofulvin] | 5-10 μm
